B1: BMP4: signaling protein promoting ETS1 in initial neural crest stem cells (protein, UniProt P12644 293-408, looked up)
Bone morphogenetic protein 4: SPKHHSQRARKKNKNCRRHSLYVDFSDVGWNDWIVAPPGYQAFYCHGDCPFPLADHLNSTNHAIVQTLVNSVNSSIPKACCVPTELSAISMLYLDEYDKVVLKNYQEMVVEGCGCR

What was measured:
Type in all cases: cell-based, human
SOX9 reporter hESCs = assay: Differentiation into cranial NCSCs using SOX9 reporter hESC (FACS)
Excerpt: (§1) The initial NCSCs were isolated on Day 5 of the differentiation, and then, on Days 5 or 10, the expression of the ETS1 protein was confirmed in the FGF2-treated NCSCs by immunochemical analysis, and the direct effects of various signaling factors on the initial NCSCs were confirmed by FACS analysis.
When NCSCs were differentiated without FGF2 treatment using SOX9: reporter hESC, a known marker of cranial NCSCs, the differentiation efficiency into cranial NCSCs was approximately 25%, and when treated with bFGF, the percentage of SOX9-expressing cells was 80% or more (FIGS. 8C and 8D).

[1] = tested on: NCSCs at the neural plate border-stage; assay: mRNA expression of cranial and cardiac NCSC markers after second differentiation
Excerpt: The NCSCs (those on Day 5 of the differentiation) at the neural plate border-stage obtained through the first differentiation in Example 3-1 were re-distributed and each treated with bFGF or CHIR99021+ retinoic acid to be differentiated into cranial NCSCs or cardiac NCSCs.

[2] = tested on: initial NCSCs (expressing p75 NGFR or HNK1); assay: Gene expression analysis of NCSCs after second differentiation with axial specification stimulating factor
Description: The NCSCs at the neural plate border-stage (cells on Day 5 of the differentiation) expressing p75 NGFR or HNK1 isolated by FACS in Example 3-1 were re-seeded at 300,000 cells per well in a 24-well plate coated with Geltrex, Matrigel, or Laminin+Fibronectin. After 24 hours, the PIM medium added on Day 5 for stabilization was gradually changed to a neurobasal medium containing 2% B-27 supplement, 1% N2 supplement, and 1% Glutamax together with fibroblast growth factor 2 (FGF2) (Table 2). As an axial specification stimulating factor, FGF2 was added to the culture medium on days 6 to 10 of differentiation, and the proliferated neural crest stem cells were purified by FACS using an antibody against the neural crest stem cell surface antigen p75 NGFR on days 11 to 14 of differentiation (FIG. 4).
Accordingly, it was confirmed that the role of the non-NCSCs is to activate FGF signaling of the initial NCSCs, inducing to cranial specification.

initial NCSCs = assay: Mechanism analysis of axial specification of initial NCSCs by signaling factors (immunochemical analysis, FACS); conditions: initial NCSCs isolated on Day 5; for ETS1 protein expression: FGF2 effect through BMP4
Excerpt: as §1

[3] = NCSCs treated at second differentiation

Molecule	percentage of SOX9-expressing cells (SOX9 reporter hESCs; SOX9 reporter hESC, cranial NCSC differentiation)	differentiation efficiency from SOX9 reporter hESCs into cranial neural crest stem cells (SOX9 reporter hESCs; two-step differentiation method)	mRNA expression of PRRX2 (cranial NCSC marker) [1]	mRNA expression of SOX9 (cranial NCSC marker) [1]	mRNA expression of TWIST1 (cranial NCSC marker) [1]	expression of the HOX gene [2, 3]	expression of the TWIST1 gene (marker gene of cranial NCSCs) [2, 3]	expression ratio of ETS1/ZIC1 ([2]; second culture for 5 days, isolated initial NCSC group and unisolated mixed cell group)	ZIC1 gene expression in single cells ([2]; single NCSCs, from Day 4)	ZIC1 gene expression (initial NCSCs)	ETS1 protein expression (initial NCSCs)	ZIC1 gene expression (initial NCSCs; listed as bFGF)
fibroblast growth factor 2 [FGF2]	≥ 80%	about 80%	increased	increased	increased	decreased expression	increased expression	increased	significant decrease	inhibit	promotion	inhibitory effect
B1											promotion	

From patent US20260201324A1, “METHOD FOR DIFFERENTIATING NEURAL CREST STEM CELLS COMPRISING AXIAL SPECIFICATION INFORMATION” (BLESS BIOTHERAPEUTICS INC., priority 2022, published 2026)
